Data as given in ChEMBL document CHEMBL5325473, “Conformational study into N-alkyl-N'-aryl ureas to inform drug discovery” (Bioorg Med Chem, 2023).
≈ marks a conversion by molar mass, not a printed value.

Assays:
[1] = molecular target: Cyclin-dependent kinase 2 (Homo sapiens, UniProt P24941); test: Binding affinity to human Avi-tagged CDK2 expressed in Escherichia coli BL21 DE3 assessed as dissociation constant by Surface plasmon resonance analysis
[2] = molecular target: Epidermal growth factor receptor (Mus musculus, UniProt Q01279); test: Displacement of probe N-(4-(4-(3-((4-((3-chloro-4-fluorophenyl)amino)-7-methoxyquinazolin-6-yl)oxy)propyl)piperazin-1-yl)-4-oxobutyl)-3-(5,5-difluoro-7,9-dimethyl-5H-5l4,6l4-dipyrrolo[1,2-c:2',1'-f][1,3,2]diazaborinin-3-yl)propenamide from C-terminal His-tagged wild type mouse EGFR incubated for 30 mins by probe displacement based TR-FRET assay
[3] = Chromatographic hydrophobicity index, log D of the compound by HPLC analysis; assay type: physicochemical
[4] = Aqueous solubility of compound at pH 7.4; assay type: physicochemical

Chain of Epidermal growth factor receptor (Q01279 whole entry): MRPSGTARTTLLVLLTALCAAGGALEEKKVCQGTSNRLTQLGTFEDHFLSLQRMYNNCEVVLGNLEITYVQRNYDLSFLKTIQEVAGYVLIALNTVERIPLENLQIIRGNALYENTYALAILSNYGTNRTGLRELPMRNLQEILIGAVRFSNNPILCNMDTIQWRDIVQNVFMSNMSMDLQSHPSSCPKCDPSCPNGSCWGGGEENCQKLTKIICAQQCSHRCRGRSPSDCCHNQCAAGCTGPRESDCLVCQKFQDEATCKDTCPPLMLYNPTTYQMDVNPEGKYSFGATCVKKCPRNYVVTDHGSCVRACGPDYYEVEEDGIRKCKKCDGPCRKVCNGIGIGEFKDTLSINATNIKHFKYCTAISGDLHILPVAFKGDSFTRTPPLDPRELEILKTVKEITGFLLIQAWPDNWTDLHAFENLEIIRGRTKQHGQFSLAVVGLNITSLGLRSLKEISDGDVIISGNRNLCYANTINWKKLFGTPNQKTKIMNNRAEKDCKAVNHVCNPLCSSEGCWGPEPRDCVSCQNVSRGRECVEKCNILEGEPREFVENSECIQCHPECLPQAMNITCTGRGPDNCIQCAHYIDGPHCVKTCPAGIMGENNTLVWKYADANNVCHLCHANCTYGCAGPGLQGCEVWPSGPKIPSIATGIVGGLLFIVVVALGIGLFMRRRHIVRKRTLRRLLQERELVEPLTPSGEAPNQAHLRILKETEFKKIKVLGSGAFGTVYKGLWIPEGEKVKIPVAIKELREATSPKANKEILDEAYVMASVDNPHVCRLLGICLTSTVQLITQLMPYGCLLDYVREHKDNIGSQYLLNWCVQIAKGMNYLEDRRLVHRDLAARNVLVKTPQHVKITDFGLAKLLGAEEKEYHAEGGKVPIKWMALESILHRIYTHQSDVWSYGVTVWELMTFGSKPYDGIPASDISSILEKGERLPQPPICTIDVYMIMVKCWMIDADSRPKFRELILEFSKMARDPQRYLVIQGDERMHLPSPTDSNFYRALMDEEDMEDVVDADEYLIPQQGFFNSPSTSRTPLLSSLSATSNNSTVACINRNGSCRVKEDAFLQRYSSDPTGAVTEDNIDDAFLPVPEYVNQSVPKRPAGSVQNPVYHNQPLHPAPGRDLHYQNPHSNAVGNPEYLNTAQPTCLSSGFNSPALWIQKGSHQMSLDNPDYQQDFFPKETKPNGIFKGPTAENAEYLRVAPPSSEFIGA

Row | Compound | Kd [1] [mM] | IC50 [2] [mM] | chromatographic logD [3] | solubility [4] [µM]
1 | O=C(Nc1ccccc1)NC1CCCC1 | 1 | 0.2 | 2.4 | 85 (≈ 17.4 µg/mL)
2 | CN(C(=O)Nc1ccccc1)C1CCCC1 | 2 | > 1 | 2.8 | 98 (≈ 21.4 µg/mL)
3 | O=C(Nc1ccccn1)NC1CCCC1 | 0.398 | 0.398 | 2.4 | 93 (≈ 19.1 µg/mL)
4 | CN(C(=O)N(C)C1CCCC1)c1ccccc1 | 3.16 | 0.126 | 3.6 | 77 (≈ 17.9 µg/mL)
5 | CN(C(=O)N(C)C1CCCC1)c1ccccn1 | 15.8 | > 1 | 2.2 | 114 (≈ 26.6 µg/mL)
6 | CN(C(=O)NC1CCCC1)c1ccccn1 | 1.58 | > 1 | 3 | 87 (≈ 19.1 µg/mL)
7 | CN(C(=O)Nc1ccccn1)C1CCCC1 | 2.51 | 0.794 | 2.1 | 102 (≈ 22.4 µg/mL)
8 | CN(C(=O)NC1CCCC1)c1ccccc1 | 7.94 | 0.1 | 2.7 | 104 (≈ 22.7 µg/mL)
